Assay results as given in patent US20030144360A1, “Composition and method for modulating BAR/FXR receptor activity” (Allergan Sales, Inc., priority 2001, published 2003).
Several values for one entry are separate records, joined by “and”; a condition that tells them apart may be missing. Identical values can stand only once.

Tests used:
[1] = test system: human AR, mouse PXR, human PXR, ERα, human LXRα, mouse PPARα, mouse PPARγ, mouse PPARδ, human VDR, human TRB, mouse CARβ; assay: Repression of cognate ligand-induced activity of other nuclear receptor/RXR heterodimers (luciferase reporter); assay type: cell-based; settings: 1 mM AGN 34 with cognate ligand
Procedure: Resulting chemiluminescence was measured in a luminometer.
Various other nuclear receptor/RXR heterodimers were incubated with the cognate ligand of the non-RXR component of the heterodimer. These were: human AR (androgen receptor), mouse PXR (10 μM pregnenolone-16-carbonitrile), human PXR (10 μM rifampicin), ERα (100 nM 17β-estradiol), human LXRα (30 μM hyodeoxycholic acid methyl ester), mouse PPARα (5 μM Wy 14,643), mouse PPARγ (1 μM rosiglitazone), mouse PPARδ (1 μM carbaprostacyclin), human VDR (100 nM 1,25-dihydroxyvitamin D3) and human TRB (100 nM triiodothyronine). No ligand was added to mouse CARβ which is constitutively active. Each compound was incubated in the presence or absence of 1 mM AGN 34, then assayed for luciferase reporter activity.

MFXR / HRXRop = target: T1, MFXR / HRXRop (UniProt P19793+Q60641); assay: Co-transfection luciferase assay, EcRE × 6 reporter, MFXR + HRXRop;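 further: CV-1 African green monkey cells, liposome transfection with a β-galactosidase vector serving as internal control, luciferase chemiluminescence read after roughly 40 h compound exposure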
T1 sequence (Q60641 1-488): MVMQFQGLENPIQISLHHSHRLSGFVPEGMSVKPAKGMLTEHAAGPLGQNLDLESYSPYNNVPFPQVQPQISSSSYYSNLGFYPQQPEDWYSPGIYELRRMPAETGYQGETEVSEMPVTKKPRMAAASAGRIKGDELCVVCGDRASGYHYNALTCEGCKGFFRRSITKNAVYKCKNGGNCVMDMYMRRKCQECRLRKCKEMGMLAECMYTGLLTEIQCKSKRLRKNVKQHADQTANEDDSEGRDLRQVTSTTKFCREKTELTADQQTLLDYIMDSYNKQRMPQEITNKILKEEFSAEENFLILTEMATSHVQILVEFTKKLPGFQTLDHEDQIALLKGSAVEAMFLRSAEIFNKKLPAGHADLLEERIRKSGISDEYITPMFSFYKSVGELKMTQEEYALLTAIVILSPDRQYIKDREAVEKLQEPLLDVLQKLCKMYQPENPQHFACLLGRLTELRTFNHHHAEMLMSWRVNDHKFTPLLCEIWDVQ
T1 sequence (P19793 1-462): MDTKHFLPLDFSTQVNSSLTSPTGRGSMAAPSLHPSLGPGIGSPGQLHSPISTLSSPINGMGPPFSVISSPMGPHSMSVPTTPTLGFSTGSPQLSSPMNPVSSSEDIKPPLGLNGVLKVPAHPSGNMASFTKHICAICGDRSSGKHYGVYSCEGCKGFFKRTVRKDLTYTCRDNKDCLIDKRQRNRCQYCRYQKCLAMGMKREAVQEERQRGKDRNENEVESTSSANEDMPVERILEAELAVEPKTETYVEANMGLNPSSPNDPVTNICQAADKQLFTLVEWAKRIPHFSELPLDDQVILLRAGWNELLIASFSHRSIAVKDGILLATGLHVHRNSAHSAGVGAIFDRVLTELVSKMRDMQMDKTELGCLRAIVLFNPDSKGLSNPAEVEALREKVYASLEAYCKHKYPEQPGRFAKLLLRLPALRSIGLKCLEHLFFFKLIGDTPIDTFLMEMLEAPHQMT
Procedure: (§1) CV-1 African Green Monkey cells were grown in Dulbecco's Modified Eagle's medium supplemented with 10% resin-charcoal stripped fetal bovine serum (FBS), 50 U/ml penicillin G and 50 μg/ml streptomycin sulfate (DMEM-FBS) at 37° C. in 5% CO2. One day prior to transfection, cells were plated to 50-80% confluence using phenol red-free DMEM-FBS. Cells were transiently transfected by lipofection as described in Forman et al., 81 Cell 687 (1995). Liposomes (N-[1-(2,3-dioleoyloxy)propyl]-N,N,N-ammonium methyl sulfate, sold by Boehringer Mannheim under the name DOTAP) were formed according to the manufacturer's instructions. The liposomes contained reporter gene constructs (300 ng/10^5 cells); cytomegalovirus driven expression vectors (25 ng/10^5 cells) were added as indicated along with CMX-Bgal (500 ng/10^5 cells) as an internal control. After 2 hours the liposomes were removed and replaced with fresh media. Cells were incubated for approximately 40 hours with phenol red-free DMEM-FBS containing the indicated compounds. After exposure to the specified ligand, the cells were harvested.
(§2) The harvested cells were assayed for the presence of luciferase activity. Cells were lysed in 0.1 M KPO4 (pH 7.8), 1.0% TRITON® X-100, 1.0 mM dithiolthreitol (DTT) and 2 mM ethylenediamine tetracetic acid (EDTA). Luciferase activity was measured by reaction of the cell lysates with luciferin in a reaction buffer comprising: 20 mM tricine, 1.07 mM Mg(CO3)4-Mg(OH)2-5H2O, 2.67 mM MgSO4.7H2O, 0.1 mM EDTA, 0.5 mM Sodium luciferin, 0.15 mg/ml Coenzyme A, 5 mM DTT, and 0.5 mM adenosine triphosphate (ATP). Resulting chemiluminescence was measured in a luminometer. […] All points were assayed in triplicate and varied by less than 15%. Each experiment was repeated three or more times with similar results.
(§3) As shown below, in most cases hRXRop was recombinantly coexpressed with one other of the indicated receptor constructs, so as to permit the formation of hetero-or homodimers containing hRXRop.
(§4) Expression of the luciferase reporter gene product was detected and quantified as described above.

RFXRop / HRXRop = target: T2, RFXRop / HRXRop (UniProt P19793+Q62735); assay: Co-transfection luciferase assay, EcRE × 6 reporter, RFXRop + HRXRop;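 further: CV-1 monkey cells transiently transfected with receptor expression vectors, reporter construct and β-galactosidase internal control, exposed to compound about 40 h, then luciferase chemiluminescence read by luminometer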
T2 sequence (Q62735 1-469): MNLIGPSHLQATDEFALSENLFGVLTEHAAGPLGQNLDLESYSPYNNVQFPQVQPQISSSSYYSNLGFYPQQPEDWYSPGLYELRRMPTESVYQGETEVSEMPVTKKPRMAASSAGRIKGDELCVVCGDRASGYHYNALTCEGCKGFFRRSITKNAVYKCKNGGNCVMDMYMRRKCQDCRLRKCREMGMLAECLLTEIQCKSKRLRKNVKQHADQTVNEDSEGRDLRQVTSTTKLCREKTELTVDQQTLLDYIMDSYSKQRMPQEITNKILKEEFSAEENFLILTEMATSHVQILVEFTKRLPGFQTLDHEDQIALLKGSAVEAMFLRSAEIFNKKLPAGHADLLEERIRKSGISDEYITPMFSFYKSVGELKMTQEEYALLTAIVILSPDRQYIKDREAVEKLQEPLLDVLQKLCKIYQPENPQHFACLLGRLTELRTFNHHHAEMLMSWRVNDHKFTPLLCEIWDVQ
T2 sequence (P19793 1-462): T1 sequence (P19793 1-462)
Procedure: as §1, §2, §3, §4

## CCCCCCOc1c(\C(C)=C/C=C/C(C)=C/C(=O)O)cc(C(C)C)cc1C(C)C [AGN 34, (2E, 4E, 6Z)-7-(2-Hexyloxy-3,5-diisopropylphenyl)-3-methylocta-2,4,6-trienoic Acid]
[1]
  repression of specific ligand-induced activity of other nuclear receptors: unable to repress
MFXR / HRXRop; 0.1 μM LG268 + 0.01 μM AGN 34
  Fold Activation: 27.08 fold
  Reporter Activity: 6.73
MFXR / HRXRop; 0.1 μM LG268 + 0.1 μM AGN 34
  Fold Activation: 1.56 fold
  Reporter Activity: 0.39
MFXR / HRXRop; 0.1 μM LG268 + 1 μM AGN 34
  Fold Activation: 1.07 fold
  Reporter Activity: 0.27
MFXR / HRXRop; 0.1 μM LG268 + 3 μM AGN 34
  Fold Activation: 1.04 fold
  Reporter Activity: 0.26
MFXR / HRXRop; 0.1 μM LG268 + 10 μM AGN 34
  Fold Activation: 1.18 fold
  Reporter Activity: 0.29
MFXR / HRXRop; 10 μM AGN 34 alone
  Fold Activation: 1.18 fold and 1.39 fold
  Reporter Activity: 0.26 and 0.35
MFXR / HRXRop; 50 μM CDCA + 0.01 μM AGN 34
  Fold Activation: 19.61 fold
  Reporter Activity: 4.37
MFXR / HRXRop; 50 μM CDCA + 0.1 μM AGN 34
  Fold Activation: 10.99 fold
  Reporter Activity: 2.45
MFXR / HRXRop; 50 μM CDCA + 1 μM AGN 34
  Fold Activation: 6.19 fold and 5.26 fold
  Reporter Activity: 1.38
MFXR / HRXRop; 50 μM CDCA + 3 μM AGN 34
  Fold Activation: 5.77 fold
  Reporter Activity: 1.29
MFXR / HRXRop; 50 μM CDCA + 10 μM AGN 34
  Fold Activation: 6.11 fold
  Reporter Activity: 1.36
RFXRop / HRXRop; 0.1 μM LG268 + 0.01 μM AGN 34
  Fold Activation: 18.59 fold
  Reporter Activity: 5.24
RFXRop / HRXRop; 0.1 μM LG268 + 0.1 μM AGN 34
  Fold Activation: 1.55 fold
  Reporter Activity: 0.44
RFXRop / HRXRop; 0.1 μM LG268 + 1 μM AGN 34
  Fold Activation: 0.88 fold
  Reporter Activity: 0.25
RFXRop / HRXRop; 0.1 μM LG268 + 3 μM AGN 34
  Fold Activation: 0.92 fold
  Reporter Activity: 0.26
RFXRop / HRXRop; 0.1 μM LG268 + 10 μM AGN 34
  Fold Activation: 0.90 fold
  Reporter Activity: 0.25
RFXRop / HRXRop; 10 μM AGN 34 alone
  Fold Activation: 0.84 fold and 1.02 fold
  Reporter Activity: 0.27 and 0.29
RFXRop / HRXRop; 50 μM CDCA + 0.01 μM AGN 34
  Fold Activation: 9.03 fold
  Reporter Activity: 2.92
RFXRop / HRXRop; 50 μM CDCA + 0.1 μM AGN 34
  Fold Activation: 6.32 fold
  Reporter Activity: 2.05
RFXRop / HRXRop; 50 μM CDCA + 1 μM AGN 34
  Fold Activation: 3.94 fold and 4.99 fold
  Reporter Activity: 1.28
RFXRop / HRXRop; 50 μM CDCA + 3 μM AGN 34
  Fold Activation: 3.04 fold
  Reporter Activity: 0.98
RFXRop / HRXRop; 50 μM CDCA + 10 μM AGN 34
  Fold Activation: 3.94 fold
  Reporter Activity: 1.28
